The source of these data is patent publication US7435837B2, “Dihydrobenzofuranyl alkanamine derivatives and methods for using same” (Wyeth, priority 2003, dated 2008).

Counter-ions that a name gives are not always drawn.

A word on the melting point: it is the temperature of the solid-liquid transition.

Regarding `NCC1Cc2cc(F)cc(-c3ccccc3)c2O1` (racemic) (as salt: hydrochloride) [Example 103, (±)-1-(5-fluoro-7-phenyl-2,3-dihydro-1-benzofuran-2-yl)methanamine], the melting point was in the range of 255 to 260 °C.
In turn, `Cc1ccccc1-c1cc(F)cc2c1OC(CN)C2` (racemic) (as salt: hydrochloride) [Example 104, (±)-1-[5-fluoro-7-(2-methylphenyl)-2,3-dihydro-1-benzofuran-2-yl]methanamine] showed a melting point of 229 to 234 °C.
For the molecule `NCC1Cc2cc(F)cc(-c3ccccc3F)c2O1` (racemic) (as salt: hydrochloride) [Example 107, (±)-1-[5-fluoro-7-(2-fluorophenyl)-2,3-dihydro-1-benzofuran-2-yl]methanamine], the melting point was 240 to 247 °C (dec.).
For `NCC1Cc2cc(F)cc(-c3ccccc3C(F)(F)F)c2O1` (racemic) (as salt: hydrochloride) [Example 108, (±)-1-{5-fluoro-7-[2-(trifluoromethyl)phenyl]-2,3-dihydro-1-benzofuran-2-yl}methanamine], the melting point is 196 to 198 °C (dec.).
On to `NCC1Cc2c(F)c(F)cc(-c3ccccc3)c2O1` (racemic) (as salt: hydrochloride) [Example 109, (±)-(4,5-difluoro-7-phenyl-2,3-dihydro-1-benzofuran-2-yl)methylamine], for which the melting point was greater than 240 °C.
With `Cc1ccccc1-c1cc(F)c(F)c2c1OC(CN)C2` (racemic) (as salt: hydrochloride) [Example 110, (±)-1-[4,5-difluoro-7-(2-methylphenyl)-2,3-dihydro-1-benzofuran-2-yl]methanamine] the figure was greater than 224 °C; with `COc1cc(Cl)cc2c1OC(CN)C2` (racemic) (as salt: hydrochloride) [Example 111, (±)-1-(5-chloro-7-methoxy-2,3-dihydro-1-benzofuran-2-yl)methanamine], 195 to 198 °C; with `CC1(CN)Cc2cc(Cl)cc(-c3ccccc3)c2O1` (racemic) (as salt: hydrochloride) [Example 112, (±)-1-(5-chloro-2-methyl-7-phenyl-2,3-dihydro-1-benzofuran-2-yl)methanamine], 222 to 225 °C.
With `CC1(CN)Cc2cc(Cl)cc(-c3ccsc3)c2O1` (racemic) (as salt: hydrochloride) [Example 113, (±)-(5-chloro-2-methyl-7-thien-3-yl-2,3-dihydro-1-benzofuran-2-yl)methylamine], the melting point is 295 to 298 °C (dec.).
As for `CC1(CN)Cc2cc(Cl)cc(-c3cccs3)c2O1` (racemic) (as salt: hydrochloride) [Example 114, (±)-(5-chloro-2-methyl-7-thien-2-yl-2,3-dihydro-1-benzofuran-2-yl)methylamine], the melting point lay within 251 to 252 °C.
`CC(C)(C)/C=C/c1cccc2c1OC(CN)C2` (racemic) (as salt: hydrochloride) [Example 117, (±)-1-{7-[(1E)-3,3-dimethylbut-1-enyl]-2,3-dihydro-1-benzofuran-2-yl}methanamine] displayed a melting point of 216 to 218 °C.
`CC(C)(C)CCc1cccc2c1OC(CN)C2` (racemic) (as salt: hydrochloride) [Example 118, (±)-1-[7-(3,3-dimethylbutyl)-2,3-dihydro-1-benzofuran-2-yl]methanamine] had a melting point of 158 to 160 °C.
For the molecule `NCC1Cc2cccc(/C=C/c3ccccc3)c2O1` (racemic) (as salt: hydrochloride) [Example 119, (±)-1-{7-[(E)-2-phenylvinyl]-2,3-dihydro-1-benzofuran-2-yl}methanamine], the melting point lay in the range of 209 to 211 °C.
Then `NCC1Cc2cccc(CCc3ccccc3)c2O1` (racemic) (as salt: hydrochloride) [Example 120, (±)-1-[7-(2-phenylethyl)-2,3-dihydro-1-benzofuran-2-yl]methanamine], with 155 to 157 °C.
`Cc1ccc(-c2cccc3c2CC(CN)O3)cc1` (racemic) (as salt: hydrochloride) [Example 121, (±)-1-[4-(4-methylphenyl)-2,3-dihydro-1-benzofuran-2-yl]methanamine]: the melting point lay within 239 to 241 °C.
In turn, `NCC1Cc2c(cccc2-c2ccccc2C(F)(F)F)O1` (racemic) (as salt: hydrochloride) [Example 122, (±)-1-{4-[2-(trifluoromethyl)phenyl]-2,3-dihydro-1-benzofuran-2-yl}methanamine] gave a melting point of 213 to 215 °C.
Turning to `Cc1cccc(C)c1-c1cccc2c1CC(CN)O2` (racemic) (as salt: hydrochloride) [Example 125, (±)-1-[4-(2,6-dimethylphenyl)-2,3-dihydro-1-benzofuran-2-yl]methanamine], the melting point was 254 to 256 °C.
`NCC1Cc2cccc(-c3c(F)cccc3F)c2O1` (racemic) (as salt: hydrochloride) [Example 139, (±)-1-[7-(2,6-difluorophenyl)-2,3-dihydro-1-benzofuran-2-yl]methanamine] came in with a melting point of 219 to 222 °C.
Consider `NCC1Cc2cccc(-c3c(Cl)cccc3Cl)c2O1` (racemic) (as salt: hydrochloride) [Example 140, (±)-1-[7-(2,6-dichlorophenyl)-2,3-dihydro-1-benzofuran-2-yl]methanamine], for which the melting point lay within 206 to 208 °C.
`COc1ccc(-c2cccc3c2OC(CN)C3)c(OC)c1` (racemic) (as salt: hydrochloride) [Example 143, (±)-1-[7-(2,4-dimethoxyphenyl)-2,3-dihydro-1-benzofuran-2-yl]methanamine]: the melting point fell in the range of 175 to 178 °C.
`NCC1Cc2cccc(-c3ccc(F)cc3F)c2O1` (racemic) (as salt: hydrochloride) [Example 146, (±)-1-[7-(2,4-difluorophenyl)-2,3-dihydro-1-benzofuran-2-yl]methanamine] gave a melting point of 222 to 224 °C.
In turn, `Cc1cccc(-c2cccc3c2OC(CN)C3)c1C` (racemic) (as salt: hydrochloride) [Example 154, (±)-1-[7-(2,3-dimethylphenyl)-2,3-dihydro-1-benzofuran-2-yl]methanamine] registered a melting point greater than 225 °C.
Then `NCC1Cc2cccc(-c3c(Cl)cc(Cl)cc3Cl)c2O1` (racemic) (as salt: hydrochloride) [Example 166, (±)-{[7-(2,4,6-trichlorophenyl)-2,3-dihydro-1-benzofuran-2-yl]methyl}amine], with greater than 225 °C; and `Cc1cc2c(c(-c3ccccc3)c1)OC(CN)C2` (racemic) (as salt: hydrochloride) [Example 281, (±)-{[(5-methyl-7-phenyl-2,3-dihydro-1-benzofuran-2-yl)methyl]amine], with 227 to 228 °C; and `Cc1ccccc1-c1cc(C#N)cc2c1OC(CN)C2` (racemic) (as salt: hydrochloride) [Example 311, (±)-2-(aminomethyl)-7-(2-methylphenyl)-2,3-dihydro-1-benzofuran-5-carbonitrile], with 127 to 129 °C.
As to `CCNCC1Cc2cccc(-c3c(Cl)cccc3Cl)c2O1` (racemic) (as salt: hydrochloride) [Example 390, (±)-N-{[7-(2,6-dichlorophenyl)-2,3-dihydro-1-benzofuran-2-yl]methyl}ethanamine], the melting point is 195 to 197 °C.
Then `Cc1ccccc1-c1c(Cl)ccc2c1OC(CN)C2` (racemic) (as salt: hydrochloride) [Example 399, (±)-{[6-chloro-7-(2-methylphenyl)-2,3-dihydro-1-benzofuran-2-yl]methyl}amine], with 204 to 206 °C.
With `NCC1Cc2ccc(Cl)c(-c3ccccc3Cl)c2O1` (racemic) (as salt: hydrochloride) [Example 400, (±)-{[6-chloro-7-(2-chlorophenyl)-2,3-dihydro-1-benzofuran-2-yl]methyl}amine] the figure was 221 to 223 °C; with `NCCC1Cc2cc(F)cc(-c3c(Cl)cccc3Cl)c2O1` (racemic) (as salt: hydrochloride) [Example 553, (±)-{2-[7-(2,6-dichlorophenyl)-5-fluoro-2,3-dihydro-1-benzofuran-2-yl]ethyl}amine], 212 to 213 °C.
Regarding `Cc1ccccc1-c1cc(Cl)cc2c1OC(CN)C2` (racemic) (as salt: salt) [Example 95, (±)-1-[5-chloro-7-(2-methylphenyl)-2,3-dihydro-1-benzofuran-2-yl]methanamine], the melting point was in the range of 160 to 163 °C.
Then `NCC1Cc2c(cccc2-c2ccccc2)O1` (single isomer, unassigned; (+)) (as salt: hydrobromid) [Example 2, (+)-1-(4-phenyl-2,3-dihydro-1-benzofuran-2-yl)methanamine], with 225 to 226 °C.
With `Cc1ccccc1-c1cccc2c1CC(CN)O2` (single isomer, unassigned; (+)) (as salt: hydrobromid) [Example 5, (+)-1-[4-(2-methylphenyl)-2,3-dihydro-1-benzofuran-2-yl]methanamine] the figure was 232 to 233 °C.
In turn, `NCC1Cc2cccc(-c3ccsc3)c2O1` (single isomer, unassigned; (+)) (as salt: hydrobromid) [Example 45, (+)-1-(7-thien-3-yl-2,3-dihydro-1-benzofuran-2-yl)methanamine] yielded a melting point of 234 to 236 °C.
`NCC1Cc2cccc(-c3cccc(Cl)c3)c2O1` (single isomer, unassigned; (+)) (as salt: hydrobromid) [Example 66, (+)-1-[7-(3-chlorophenyl)-2,3-dihydro-1-benzofuran-2-yl]methanamine] had a melting point of 187 to 189 °C.
As to `Cc1ccc(-c2cccc3c2OC(CN)C3)cc1` (single isomer, unassigned; (+)) (as salt: hydrobromid) [Example 71, (+)-1-[7-(4-methylphenyl)-2,3-dihydro-1-benzofuran-2-yl]methanamine], the melting point was greater than 250 °C.
